Tested on: brain of rats subjected to closed-head diffuse severe TBI (sTBI)
Experiment: HPLC of free amino acids and amino group containing compounds in brain, dose study after sTBI (Example 3)
Format: in vivo, rat
Text: Male Wistar rats (n=160) of 300-350 g body weight were used in this study.
1994, 80: 291-300. This model causes diffuse axonal injury and it is able to reproduce the physical and mechanical characteristics of the diffuse TBI in humans.
Rats were placed prone on a bed of specific polyurethane foam inserted in a special container. This foam dissipates the major part of the potential energy (deriving from the mechanical forces) and prevents any rebound of the animal after the impact that could produce spinal damages.
These time points are coincident with the worst biochemical derangement (2 days) or, in the case of a mildly injured brain, with a full metabolic recovery (7 days).
The drug treatment consisted in a subcutaneous injection of 0.5 ml of LMW-DS (Tikomed) and administered at 3 different concentrations (1, 5 and 15 mg/kg body weight), according to the schematic protocol described below.
Sham-operated animals underwent the same procedure of anesthesia but TBI and were used as the control group.
Rats used in this study were divided into 4 groups in order to carry out a study on the efficacy of three different concentrations of LMW-DS at two different times post TBI. As subsequently specified, in each group there were animals subjected to a specific treatment for metabolic analyses and other animals intended to histo-morphological studies, according to the procedures described below.
Rats subjected to sTBI and receiving a single administration of LMW-DS after 30 minutes post-TBI, with sacrifice at 2 days post-TBI. Animals were divided in the following subgroups:
Rats subjected to sTBI and receiving a single administration of LMW-DS after 30 minutes post-TBI, with sacrifice at 7 days post-TBI. Animals were divided in the following subgroups:
Rats (n=12) subjected to sTBI and receiving repeated administrations of the maximal dose of LMW-DS (15 mg/kg b.w.) after 30 minutes, 3 days and 5 days post-TBI, with sacrifice at 7 days post-TBI. Four additional rats were used for the histo-morphological studies. Total rats in this group: n=16
To minimize metabolite loss, an in vivo craniectomy was performed in all animals during anesthesia. The rat skull was carefully removed, the brain was exposed, sharply cut along the sagittal fissure and the two hemispheres were separated. The hemispheres dedicated to biochemical analyses were freeze-clamped by aluminum tongues pre-cooled in liquid nitrogen and then immersed in liquid nitrogen. The freeze-clamping procedure was introduced to accelerate freezing of the tissue, thus minimizing potential metabolite loss.
Tissue homogenization for metabolite analyses was effected as described below. After the wet weight (w.w.) determination, the frozen hemispheres were placed into 7 ml of ice-cold, nitrogen-saturated, precipitating solution (1:10 w/v) composed by CH3CN+10 mM KH2PO4, pH 7.40, (3:1; v:v), and the homogenization was performed using an Ultra-Turrax homogenizer set at 24,000 rpm/min (Janke & Kunkel, Staufen, Germany). After centrifugation at 20,690×g, for 10 min at 4° C., the clear supernatants were saved, pellets were supplemented with an aliquot of 10 mM KH2PO4 and homogenized again as described above and saved overnight at −20° C. in order to obtain a complete recovery of aqueous phase from tissue. A second centrifugation was performed (20,690×g, for 10 min at 4° C.) and supernatants combined with those previously obtained were extracted by vigorous agitation with a double volume of HPLC-grade CHCl3 and centrifuged as above.

[1] = rats 2 days post-TBI, single 1 mg/kg b.w. 30 min after trauma
[2] = rats 2 days post-TBI, single 5 mg/kg b.w. 30 min after trauma
[3] = rats 2 days post-TBI, single 15 mg/kg b.w. 30 min after trauma
[4] = rats 7 days post-sTBI, repeated 15 mg/kg b.w.
[5] = rats 7 days post-sTBI, single 1 mg/kg b.w.
[6] = rats 7 days post-sTBI, single 5 mg/kg b.w.
[7] = rats 7 days post-sTBI, single 15 mg/kg b.w.

Substance: sodium salt of dextran sulfate [LMW-DS]
- isoleucine (ILE) (2 days post-TBI): restored
- osmolyte and aromatic free amino acids (2 days post-TBI): No remarkable effects
- methionine (2 days post-TBI, any dose tested): Restoration
- TAU concentrations (7 days after injury): normalized
- L-Cystathionine (L-Cystat) (7 days post impact, highest dose, single or repeat): significant increase
- GLU (7 days post injury, 15 mg/kg b.w. single or repeat): normalization
- ARG concentration in brain homogenate [1]: 0.13 ± 0.03 nmol/g w.w.
- ASN concentration in brain homogenate [1]: 0.13 ± 0.02 µmol/g w.w.
- ASP concentration in brain homogenate [1]: 4.17 ± 0.99 nmol/g w.w.
- GABA concentration in brain homogenate [1]: 1.87 ± 0.17 µmol/g w.w.
- GLN concentration in brain homogenate [1]: 4.37 ± 0.59 µmol/g w.w.
- GLU concentration in brain homogenate [1]: 12.5 ± 0.91 µmol/g w.w.
- GLY concentration in brain homogenate [1]: 1.35 ± 0.26 nmol/g w.w.
- LYS concentration in brain homogenate [1]: 0.29 ± 0.11 µmol/g w.w.
- MET concentration in brain homogenate [1]: 0.04 ± 0.01 µmol/g w.w.
- ORN concentration in brain homogenate [1]: 0.02 ± 0.01 µmol/g w.w.
- SAH concentration in brain homogenate [1]: 0.07 ± 0.02 nmol/g w.w.
- TAU concentration in brain homogenate [1]: 4.98 ± 0.47 nmol/g w.w.
- THR concentration in brain homogenate [1]: 0.70 ± 0.15 nmol/g w.w.
- TRP concentration in brain homogenate [1]: 0.02 ± 0.01 µmol/g w.w.
- TYR concentration in brain homogenate [1]: 0.18 ± 0.03 nmol/g w.w.
- VAL concentration in brain homogenate [1]: 0.07 ± 0.03 µmol/g w.w.
- ARG concentration in brain homogenate [2]: 0.13 ± 0.03 nmol/g w.w.
- ASP concentration in brain homogenate [2]: 4.15 ± 0.95 nmol/g w.w.
- GABA concentration in brain homogenate [2]: 1.99 ± 0.18 µmol/g w.w.
- GLN concentration in brain homogenate [2]: 4.55 ± 0.44 µmol/g w.w.
- GLY concentration in brain homogenate [2]: 1.43 ± 0.28 nmol/g w.w.
- L-Cystat concentration in brain homogenate [2]: 0.31 ± 0.06 µmol/g w.w.
- LYS concentration in brain homogenate [2]: 0.37 ± 0.14 µmol/g w.w.
- ORN concentration in brain homogenate [2]: 0.01 ± 0.01 µmol/g w.w.
- SAH concentration in brain homogenate [2]: 0.07 ± 0.02 nmol/g w.w.
- TAU concentration in brain homogenate [2]: 5.15 ± 0.49 nmol/g w.w.
- THR concentration in brain homogenate [2]: 0.77 ± 0.17 nmol/g w.w.
- TRP concentration in brain homogenate [2]: 0.03 ± 0.01 µmol/g w.w.
- TYR concentration in brain homogenate [2]: 0.20 ± 0.03 nmol/g w.w.
- VAL concentration in brain homogenate [2]: 0.08 ± 0.03 µmol/g w.w.
- ARG concentration in brain homogenate [3]: 0.16 ± 0.04 nmol/g w.w.
- ASP concentration in brain homogenate [3]: 3.05 ± 0.42 nmol/g w.w.
- GLN concentration in brain homogenate [3]: 4.21 ± 0.51 µmol/g w.w.
- GLY concentration in brain homogenate [3]: 1.18 ± 0.23 nmol/g w.w.
- LEU concentration in brain homogenate [3]: 0.04 ± 0.01 µmol/g w.w.
- LYS concentration in brain homogenate [3]: 0.32 ± 0.12 µmol/g w.w.
- MET concentration in brain homogenate [3]: 0.03 ± 0.01 µmol/g w.w.
- ORN concentration in brain homogenate [3]: 0.02 ± 0.01 µmol/g w.w.
- SAH concentration in brain homogenate [3]: 0.06 ± 0.02 nmol/g w.w.
- TAU concentration in brain homogenate [3]: 4.59 ± 0.43 nmol/g w.w.
- THR concentration in brain homogenate [3]: 0.61 ± 0.13 nmol/g w.w.
- TYR concentration in brain homogenate [3]: 0.17 ± 0.03 nmol/g w.w.
- VAL concentration in brain homogenate [3]: 0.06 ± 0.03 µmol/g w.w.
- ALA concentration in brain homogenate [4]: 0.47 ± 0.05 µmol/g w.w.
- ASN concentration in brain homogenate [4]: 0.1 ± 0.02 µmol/g w.w.
- ASP concentration in brain homogenate [4]: 2.42 ± 0.39 nmol/g w.w.
- CITR concentration in brain homogenate [4]: 0.03 ± 0.01 µmol/g w.w.
- GABA concentration in brain homogenate [4]: 1.38 ± 0.14 µmol/g w.w.
- GLN concentration in brain homogenate [4]: 3.88 ± 0.4 µmol/g w.w.
- GLY concentration in brain homogenate [4]: 0.78 ± 0.10 nmol/g w.w.
- HYS concentration in brain homogenate [4]: 0.06 ± 0.01 µmol/g w.w.
- ILE concentration in brain homogenate [4]: 0.03 ± 0.01 µmol/g w.w.
- LEU concentration in brain homogenate [4]: 0.04 ± 0.01 µmol/g w.w.
- LYS concentration in brain homogenate [4]: 0.23 ± 0.07 µmol/g w.w.
- ORN concentration in brain homogenate [4]: 0.02 ± 0.01 µmol/g w.w.
- SAH concentration in brain homogenate [4]: 0.04 ± 0.04 nmol/g w.w.
- TAU concentration in brain homogenate [4]: 3.47 ± 0.44 nmol/g w.w.
- THR concentration in brain homogenate [4]: 0.77 ± 0.14 nmol/g w.w.
- TYR concentration in brain homogenate [4]: 0.14 ± 0.02 nmol/g w.w.
- VAL concentration in brain homogenate [4]: 0.07 ± 0.01 µmol/g w.w.
- ALA concentration in brain homogenate [5]: 0.57 ± 0.06 µmol/g w.w.
- ARG concentration in brain homogenate [5]: 0.13 ± 0.02 nmol/g w.w.
- ASN concentration in brain homogenate [5]: 0.1 ± 0.02 µmol/g w.w.
- ASP concentration in brain homogenate [5]: 4.17 ± 0.67 nmol/g w.w.
- CITR concentration in brain homogenate [5]: 0.03 ± 0.01 µmol/g w.w.
- GABA concentration in brain homogenate [5]: 1.73 ± 0.18 µmol/g w.w.
- GLN concentration in brain homogenate [5]: 4.1 ± 0.42 µmol/g w.w.
- GLU concentration in brain homogenate [5]: 12.1 ± 1.02 µmol/g w.w.
- GLY concentration in brain homogenate [5]: 0.98 ± 0.20 nmol/g w.w.
- HYS concentration in brain homogenate [5]: 0.06 ± 0.01 µmol/g w.w.
- L-Cystat concentration in brain homogenate [5]: 0.24 ± 0.04 µmol/g w.w.
- LYS concentration in brain homogenate [5]: 0.19 ± 0.06 µmol/g w.w.
- MET concentration in brain homogenate [5]: 0.03 ± 0.01 µmol/g w.w.
- ORN concentration in brain homogenate [5]: 0.01 ± 0.01 µmol/g w.w.
- SAH concentration in brain homogenate [5]: 0.04 ± 0.01 nmol/g w.w.
- SER concentration in brain homogenate [5]: 0.92 ± 0.16 µmol/g w.w.
- TAU concentration in brain homogenate [5]: 4.02 ± 0.51 nmol/g w.w.
- THR concentration in brain homogenate [5]: 0.71 ± 0.12 nmol/g w.w.
- TYR concentration in brain homogenate [5]: 0.13 ± 0.02 nmol/g w.w.
- VAL concentration in brain homogenate [5]: 0.08 ± 0.01 µmol/g w.w.
- ALA concentration in brain homogenate [6]: 0.44 ± 0.05 µmol/g w.w.
- ARG concentration in brain homogenate [6]: 0.15 ± 0.02 nmol/g w.w.
- ASN concentration in brain homogenate [6]: 0.1 ± 0.02 µmol/g w.w.
- ASP concentration in brain homogenate [6]: 3.63 ± 0.59 nmol/g w.w.
- CITR concentration in brain homogenate [6]: 0.03 ± 0.01 µmol/g w.w.
- GLN concentration in brain homogenate [6]: 3.86 ± 0.4 µmol/g w.w.
- GLU concentration in brain homogenate [6]: 11.8 ± 0.99 µmol/g w.w.
- GLY concentration in brain homogenate [6]: 0.88 ± 0.15 nmol/g w.w.
- HYS concentration in brain homogenate [6]: 0.06 ± 0.01 µmol/g w.w.
- L-Cystat concentration in brain homogenate [6]: 0.26 ± 0.04 µmol/g w.w.
- LYS concentration in brain homogenate [6]: 0.21 ± 0.04 µmol/g w.w.
- MET concentration in brain homogenate [6]: 0.04 ± 0.01 µmol/g w.w.
- TAU concentration in brain homogenate [6]: 3.51 ± 0.44 nmol/g w.w.
- THR concentration in brain homogenate [6]: 0.71 ± 0.15 nmol/g w.w.
- TRP concentration in brain homogenate [6]: 0.02 ± 0.01 µmol/g w.w.
- TYR concentration in brain homogenate [6]: 0.13 ± 0.02 nmol/g w.w.
- VAL concentration in brain homogenate [6]: 0.08 ± 0.01 µmol/g w.w.
- ALA concentration in brain homogenate [7]: 0.38 ± 0.04 µmol/g w.w.
- ARG concentration in brain homogenate [7]: 0.14 ± 0.02 nmol/g w.w.
- ASN concentration in brain homogenate [7]: 0.1 ± 0.02 µmol/g w.w.
- CITR concentration in brain homogenate [7]: 0.03 ± 0.01 µmol/g w.w.
- GABA concentration in brain homogenate [7]: 1.43 ± 0.15 µmol/g w.w.
- GLN concentration in brain homogenate [7]: 3.73 ± 0.38 µmol/g w.w.
- GLU concentration in brain homogenate [7]: 10.2 ± 0.86 µmol/g w.w.
- GLY concentration in brain homogenate [7]: 0.78 ± 0.12 nmol/g w.w.
- HYS concentration in brain homogenate [7]: 0.06 ± 0.01 µmol/g w.w.
- L-Cystat concentration in brain homogenate [7]: 0.25 ± 0.04 µmol/g w.w.
- LYS concentration in brain homogenate [7]: 0.21 µmol/g w.w.
- MET concentration in brain homogenate [7]: 0.04 ± 0.01 µmol/g w.w.
- SAH concentration in brain homogenate [7]: 0.04 ± 0.01 nmol/g w.w.
- SER concentration in brain homogenate [7]: 0.76 ± 0.12 µmol/g w.w.
- TAU concentration in brain homogenate [7]: 3.38 ± 0.44 nmol/g w.w.
- THR concentration in brain homogenate [7]: 0.72 ± 0.14 nmol/g w.w.
- TYR concentration in brain homogenate [7]: 0.14 ± 0.02 nmol/g w.w.

From patent publication US20220128542A1, “TREATMENT EFFICIENCY EVALUATION” (TX MEDIC AB, priority 2019, published 2022)
